We go through 8 compounds from ChEMBL document CHEMBL1201862, “PubChem BioAssay data set” (2004).

Each structure is given as a SMILES string.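 These data come from cells grown in 96-well plates and exposed to compound for 48 hours at five concentrations. The concentration for 50% growth inhibition is given as GI50.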 The source made the active and inactive calls. Cut-off read from the data, not from the text of the source: active = GI50 up to about 1.1 µM and inactive = higher.

Holding throughout (assay): NCI tumour cell line growth inhibition, 48 h
Assay [1] has as its system SNB-19.
Assay [2] deals with T47D.
Assay [3] relates to OVCAR-8.
For assay [4], the system named is NCI/ADR-RES.
In assay [5] the test system is COLO 205.
For assay [6], the system named is SW-620.
In assay [7] the test system is HCT-15.
The subject of assay [8] is NCI-H460.
The test system of assay [9] is HCC 2998.
Assay [10] relates to K562.
Assay [11] relates to MCF7.
Assay [12] relates to ACHN.
Assay [13] relates to UO-31.
Assay [14] relates to HOP-62.
For assay [15], the system named is NCI-H23.
In assay [16] the test system is PC-3.
The subject of assay [17] is SK-OV-3.
In assay [18] the test system is DU-145.
Assay [19] deals with SNB-75.
For assay [20], the system named is CCRF-CEM.

Take `O=C1C(NCCc2ccc(O)c([N+](=O)[O-])c2)=CC(=O)c2[nH]cnc21`: the GI50 in [1] was 89.5 µM (inactive); in [2], 18.5 µM (inactive); in [3], 25 µM (inactive); in [4] it was > 100 µM (inactive); in assay [5], 43.8 µM (inactive); in [6], 44.6 µM (inactive). Moreover, the GI50 in assay [7] is 39.7 µM; in [8] it was 24.8 µM (inactive); in assay [9] it was 51.5 µM (inactive); in assay [10] it was 18.4 µM (inactive); in assay [11] it was 32 µM (inactive); in assay [12], 44.3 µM (inactive). Also, the GI50 is 76.9 µM (inactive) in [13], 68.4 µM (inactive) in assay [14], 17.1 µM (inactive) in assay [15] and 67 µM (inactive) in assay [16].

Turning to `C[C@]12CC[C@H]3[C@@H](CC[C@]4(O)C[C@@H](O)CC[C@]34/C=N/O)[C@@]1(O)CC[C@@H]2C1=COC(=O)C1`, the GI50 in assay [1] was 0.673 µM (active); in assay [2] it was 0.317 µM (active); in assay [17], 0.0436 µM (active); in [3] it was 0.154 µM (active); in [4] it was 0.141 µM (active); in assay [18], 0.0637 µM (active). For the same compound, the GI50 in [5] was 0.474 µM (active); in assay [6], 0.191 µM (active); in [19] it was 0.332 µM (active); in assay [7], 0.158 µM; in assay [8], 0.0403 µM (active); in assay [9], 0.251 µM (active). Further, the GI50 in [10] was 0.12 µM (active); in assay [12], 0.0404 µM (active); in assay [13], 0.112 µM (active); in [14] it was 0.102 µM (active); in assay [15] it was 0.0644 µM (active); in assay [16], 0.149 µM (active).

For `Cc1ccc(C(=O)Nc2ccc(S(=O)(=O)O)c3cc(S(=O)(=O)O)cc(S(=O)(=O)O)c23)cc1NC(=O)Nc1cc(C(=O)Nc2ccc(S(=O)(=O)O)c3cc(S(=O)(=O)O)cc(S(=O)(=O)O)c23)ccc1C`, the GI50 in assay [1], in [2], in assay [3], in assay [18], in [6] and in assay [19] was > 87.5 µM (inactive) each time. For the same compound, the GI50 in assay [7] is more than 87.5 µM; in assay [8], > 87.5 µM (inactive); in assay [9] it was > 87.5 µM (inactive); in assay [10], > 87.5 µM (inactive); in assay [20], > 87.5 µM (inactive); in assay [11] it was > 87.5 µM (inactive). Moreover, the GI50 in assay [12], in [13], in assay [14], in assay [15] and in assay [16] was > 87.5 µM (inactive) each time.

On to `Cc1nc(=O)c2cc(CN(C)c3ccc(C(=O)N[C@@H](CCC(=O)O)C(=O)O)s3)ccc2[nH]1` [RALTITREXED], for which the GI50 was > 100 µM (inactive) in [1]; > 100 µM (inactive) in assay [2]; > 100 µM (inactive) in assay [17]; 0.0883 µM (active) in assay [3]; 0.273 µM (active) in [18]; > 100 µM (inactive) in assay [5]. The GI50 in [6] is > 100 µM (inactive); in [19] it was 6.79 µM (inactive); in assay [7], more than 100 µM; in assay [8], 0.041 µM (active); in assay [10] it was 0.0104 µM (active); in assay [11], 8.04 µM (inactive). Further, the GI50 was 0.0467 µM (active) in assay [12], 0.13 µM (active) in [14] and > 100 µM (inactive) in assay [16].

For the compound `COC(=O)C[C@H]1[C@]2(C)C3=C(C)[C@H](c4ccoc4)CC3O[C@@H]2[C@@H]2OC(=O)[C@]3(C)CCC(=O)[C@@]1(C)[C@@H]23` (stereo partly drawn), the GI50 in assay [2] is > 100 µM (inactive); in [17] it was > 100 µM (inactive); in [3], 44.8 µM (inactive); in assay [4], 48.6 µM (inactive); in [18] it was 32.4 µM (inactive); in assay [5], 62.8 µM (inactive). In addition, the GI50 in [6] is 50.6 µM (inactive); in assay [19], 42.8 µM (inactive); in assay [7] it was 38.8 µM; in [8], > 100 µM (inactive); in assay [10], 35.2 µM (inactive); in assay [20], 19.9 µM (inactive). Also, the GI50 is 31.4 µM (inactive) in assay [11]; > 100 µM (inactive) in assay [12]; 54.5 µM (inactive) in [13]; > 100 µM (inactive) in [14]; 46.5 µM (inactive) in assay [15].

With `COC(=O)C1=C(C(=O)OC)C2CCC1CC2=O` (stereo not drawn), the GI50 was > 100 µM (inactive) in assay [1]; > 100 µM (inactive) in assay [17]; > 100 µM (inactive) in assay [3]; > 100 µM (inactive) in assay [4]; > 100 µM (inactive) in [18]; 50.9 µM (inactive) in [5]. Besides, the GI50 in [6] was 89.9 µM (inactive); in [19], > 100 µM (inactive); in assay [7], 83.8 µM; in assay [8], > 100 µM (inactive); in assay [9], > 100 µM (inactive); in assay [10], 49 µM (inactive). The GI50 in assay [20] is 31.3 µM (inactive); in assay [11], > 100 µM (inactive); in [12] it was > 100 µM (inactive); in assay [13], 55.1 µM (inactive); in [14], > 100 µM (inactive); in [15], > 100 µM (inactive). For the same compound, the GI50 in assay [16] is > 100 µM (inactive).

In the case of `COC(=O)c1nc2c3c(cccc3c1C(=O)OC)Nc1ccccc1-2`, the GI50 in [1] was 51.3 µM (inactive); in assay [17] it was 24 µM (inactive); in assay [4], 17.8 µM (inactive); in assay [18], 41.6 µM (inactive); in assay [5], 28.1 µM (inactive); in assay [6] it was 40.7 µM (inactive). In addition, the GI50 was 34.5 µM (inactive) in assay [19]; 25.7 µM (inactive) in assay [8]; 42.3 µM (inactive) in [9]; 54.1 µM (inactive) in [10]; 13.2 µM (inactive) in assay [20]; 60.4 µM (inactive) in assay [11]. The GI50 in assay [12] is 36.6 µM (inactive); in assay [13] it was 18.8 µM (inactive); in [14], 23.6 µM (inactive); in assay [15], 36 µM (inactive); in [16] it was 15.5 µM (inactive).

On to `CCN1CC2=C(NC(=S)NC2c2cc(OC)c(OC)c(OC)c2)/C(=C/c2cc(OC)c(OC)c(OC)c2)C1` (stereo not drawn), for which the GI50 in assay [1] was 36.8 µM (inactive); in [17], > 100 µM (inactive); in assay [3] it was 21.7 µM (inactive); in assay [4], 30.9 µM (inactive); in assay [18], 33.3 µM (inactive); in assay [5] it was 20.1 µM (inactive). Moreover, the GI50 is 86.3 µM (inactive) in assay [6]; 2.74 µM (inactive) in [19]; 32 µM in assay [7]; 46.8 µM (inactive) in assay [8]; 29.8 µM (inactive) in [9]; 17.3 µM (inactive) in assay [10]. Further, the GI50 was 37.4 µM (inactive) in assay [20]; 24.6 µM (inactive) in assay [11]; 44.9 µM (inactive) in assay [12]; 20.5 µM (inactive) in assay [13]; 50.6 µM (inactive) in [14]; 38.2 µM (inactive) in [15]. Further, the GI50 in [16] was 26.4 µM (inactive).
